Results from patent US20260294770A1, “FORMULATIONS OF NARINGENIN” (DEBUT BIOTECHNOLOGY, INC., priority 2023, published 2026).

Tests used:
GDF15 = test: Downregulation of gene expression and/or activity, 1% naringenin: GDF15
Excerpt: (§1) In certain embodiments, administration of a composition comprising naringenin leads to up-regulation of LCE5A, KRT77, ALOXE3, KRT1, HPGD, MUCL1, CASP14, WFDC12, KRT10, DNASE1L2, IL37, SERPINB12, HAL, UPK1A, CALML5, LCE2B, and/or MIR205. In certain embodiments, administration of a composition comprising naringenin leads to down-regulation of CCL11, CSF2, IL23A, IL11, BMP6, IL13RA2, C2CD4A, NR4A2, C2CD4B, FGF2, FARP4, GDF15, THBS1, HSPA1A, PTGS2, and/or DKK1. Tables 10 and 11 provide data for upregulation and downregulation respectively of certain genes after administration of compositions comprising 1% naringenin.
(§2) Growth differentiation factor 15 (GDF15) plays a role in the inflammatory response. In certain embodiments, downregulation of GDF15 results in reduction in inflammation. In certain embodiments, the administration of composition comprising naringenin results in at least about 2 to about 10-fold downregulation of expression and/or activity of GDF15. In certain embodiments, the administration of composition comprising naringenin results in at least about five (5) fold downregulation of expression and/or activity of GDF15.

DNASE1L2 = test: Upregulation of gene expression and/or activity, 1% naringenin: DNASE1L2
Excerpt: as §1
Deoxyribonuclease-1-like 2 (DNASE1L2) plays a role in recycling of dying cells. Hair, nails, and the cornified layer of the epidermis, i.e. the stratum corneum, consist of cornified keratinocytes, also known as corneocytes. The process of cornification involves the cross-linking of structural proteins and leads to the high mechanical stability of corneocytes which, along with the formation of stable desmosomal links between cells, is essential for the resistance of epidermal structures to stress from the environment DNASE1L2 is a keratinocyte-specific DNase. DNASE1L2 breakdown of the nucleus in skin appendages and distinct epithelia whereas cornification of the interfollicular epidermis. […]

C2CD4B = test: Downregulation of gene expression and/or activity, 1% naringenin: C2CD4B
Excerpt: as §1
as §2, with “C2 calcium dependent domain containing 4B (C2CD4B)” for “Growth differentiation factor 15 (GDF15)”, “C2CD4B” for “GDF15”, “5” for “2”, “15-fold” for “10-fold”, “C2CD4B.” for “GDF15.”, “ten (10)” for “five (5)”

glutathione = details: consumed orally; cited from earlier work
[1] = system: HaCaT immortalized keratinocytes; details: 10 μM; cited from earlier work
HAL = test: Upregulation of gene expression and/or activity, 1% naringenin: HAL
Excerpt: as §1

HSPA1A = test: Downregulation of gene expression and/or activity, 1% naringenin: HSPA1A
Excerpt: as §1
Heat shock protein family A (Hsp70) member 1A (HSPA1A) plays a role in clearing of aged cells and/or senolytic effect. In certain embodiments, the administration of compositions comprising naringenin leads to downregulation of expression and/or activity of HSPA1A. […] In certain embodiments, this may also lead to anti-aging effect for the skin. In certain embodiments, the administration of composition comprising naringenin results in at least about 2 to about 10-fold downregulation of expression and/or activity of HSPA1A. In certain embodiments, the administration of composition comprising naringenin results in at least about five (5) fold downregulation of expression and/or activity of HSPA1A.

KRT1 = test: Upregulation of gene expression and/or activity, 1% naringenin: KRT1
Excerpt: as §1
Keratin 1 (KRT1) plays a role in maintaining the skin strength and resiliency. Keratin 1 is produced in keratinocytes in the outer layer of the skin (the epidermis), including the skin on the palms of the hands and soles of the feet. The keratin 1 protein partners with another keratin protein, either keratin 9 or keratin 10, to form molecules called keratin intermediate filaments. These filaments assemble into strong networks that provide strength and resiliency to the skin and protect it from being damaged by friction and other everyday physical stresses. In certain embodiments, the administration of composition comprising naringenin results in upregulation of KRT1, which has a role in enhancing the strength and resiliency of the skin. […]

[2] = target: T1, human neutrophil elastase (Homo sapiens, UniProt P08246); test: Elastase enzyme inhibition; type: biochemical
T1 sequence (P08246 30-267): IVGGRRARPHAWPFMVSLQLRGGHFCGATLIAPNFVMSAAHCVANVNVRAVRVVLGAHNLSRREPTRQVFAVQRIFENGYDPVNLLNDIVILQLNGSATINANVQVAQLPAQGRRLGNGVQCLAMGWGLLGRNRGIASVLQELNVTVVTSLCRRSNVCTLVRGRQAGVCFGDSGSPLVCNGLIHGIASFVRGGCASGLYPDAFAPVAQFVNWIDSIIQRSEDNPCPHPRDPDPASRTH
Protocol: The assay was conducted to evaluate the elastase enzyme inhibition activity of compositions comprising naringenin.
Neutrophil infiltration and neutrophil elastase are both increased in the skin in response to UV stress. […] Therefore, inhibition of this enzyme, particularly in combination with antioxidant activity, is effective in delaying wrinkle development and aiding in maintaining skin integrity. This assay is measures release of 4-nitroaniline from an Me-Suc-Ala-Ala-Pro-Val-pNA by human neutrophil elastase and can be quantified at 405 nm by comparing to solvent control.

Q: For O=C1C[C@@H](c2ccc(O)cc2)Oc2cc(O)cc(O)c21 [naringenin, (2S)-5,7-Dihydroxy-2-(4-hydroxyphenyl)-2,3-dihydro-4H-1-benzopyran-4-one], which “fold downregulation in expression and/or activity of GDF15” value (GDF15) is on record?
A: ~6 fold

Q: And the “Fold-increase (downregulation table) GDF15” value (GDF15; negative = downregulation)?
A: −6 fold

Q: And the “Fold-increase in expression and/or activity of DNASE1L2” value (DNASE1L2)?
A: ~9 fold

Q: What about the “fold downregulation in expression and/or activity of C2CD4B” value (C2CD4B) of the same molecule?
A: ~8 fold

Q: And the “Fold-increase (downregulation table) C2CD4B” value (C2CD4B; negative = downregulation)?
A: −8 fold

Q: What about the Glutathione (glutathione) of the same molecule?
A: increase

Q: And the “Protection from UVB-induced apoptosis” value [1]?
A: protecting HaCaT immortalized keratinocytes from UVB-induced apoptosis

Q: What about the “Fold-increase in expression and/or activity of HAL” value (HAL) of the same molecule?
A: 8 fold

Q: What about the “fold downregulation in expression and/or activity of HSPA1A” value (HSPA1A) of the same molecule?
A: ~6 fold

Q: And the “Fold-increase (downregulation table) HSPA1A” value (HSPA1A; negative = downregulation)?
A: −6 fold

Q: And the “Fold-increase in expression and/or activity of KRT1” value (KRT1)?
A: ~7 fold

Q: And the “Lowest concentration inhibiting elastase” value [2]?
A: ≤ 0.02 % w/w

Q: And the inhibition at 0.02 % strength ([2]; 0.02 % w/w naringenin)?
A: 1.05%

Q: And the inhibition at 0.1 % strength ([2]; 0.10 % w/w naringenin)?
A: 15.5%

Q: And the inhibition at 0.5 % strength ([2]; 0.50 % w/w naringenin)?
A: 84%

Q: And the IC50 elastase inhibition ([2]; role: inhibitor, substrate Me-Suc-Ala-Ala-Pro-Val-pNA, calculated)?
A: 0.159 % w/w
